Test results published in patent US6136835A (priority 1999, dated 2000).
Several values for one entry are separate records, joined by “and”; a condition that tells them apart may be missing. Identical values can stand only once. Like-named read-outs stand apart in the source and are kept apart here.

Legend:
murine melanoma (B16) = conditions: for % Increase in survival time relative to control (100%) / Survivors in cancer model: mouse, in vivo
Procedure: In an in vivo mouse model for murine melanoma (B16) fluconazole was tested alone and in combination with adriamycin (doxorubicin) at various doses.

[1] = tested on: human influenza virus, strain AT2/Taiwan/1/64; assay: Anti viral evaluation with human influenza virus in mice; assay type: in vivo; conditions: 21 days observation, virus dose ~90% lethality
[2] = tested on: lung, non-small cell cancer; assay: In Vitro Human Tumor Colony Forming Units Test, lung, non-small cell; assay type: cell-based; conditions: 50.0 μg/ml, continuous exposure
Procedure: (§1) Solid tumors removed from patients are minced into 2 to 5 mm fragments and immediately placed in McCoy's Medium 5A plus 10% heat inactivated newborn calf serum lus 1% penicillin/streptomycin. Within 4 hours, these solid tumors are mechanically disassociated with scissors, forced through No. 100 stainless steel mesh, through 25 gauge needles, and then washed with McCoys medium as described above. Ascitic, pleural, pericardial fluids and bone marrow are obtained by standard techniques. The fluid or marrow is placed in sterile containers containing 10 units of preservative free heparin per ml. of malignant fluid or marrow. After centrifugation at 150× g for 10 minutes, the cells are harvested and washed with McCoy's medium plus 10% heat inactivated calf serum. The viability of cell suspensions is determined on a hemocytometer with trypan blue.
(§2) Cells to be cloned are suspended in 0.3% agar in enriched CMRL1066 supplemented with 15% heat inactivated horse serum, penicillin (100 units/ml), streptomycin ([…]), glutamine (2 mM ), insulin (3 units/ml), asparagine (0.6 mg/ml), and HEPES buffer (2 mM ). For the continuous exposure test each compound is added to the above mixture. […] If there is <30% cells in the positive control when compared to the untreated control, the test is evaluated. […]

Rhinovirus = conditions: in vivo Rhinovirus
[3] = tested on: solid tumors removed from patients; assay: In Vitro Human Tumor Colony Forming Units Test; assay type: cell-based; conditions: for effective against tumors (number of tumors): continuous exposure or single dose experiment
Procedure: as §1
Cells to be cloned are suspended in 0.3% agar in enriched CMRL1066 supplemented with 15% heat inactivated horse serum, penicillin (100 units/ml), streptomycin ([…]), glutamine (2 mM ), insulin (3 units/ml), asparagine (0.6 mg/ml), and HEPES buffer (2 mM ). For the continuous exposure test each compound is added to the above mixture. Cells are placed in 35 mm petri dishes in a top layer of agar over an underlayer of agar to prevent growth of fibroblasts. Three plates are prepared for each data point. The plates are placed in a 37° C. incubator, and are removed on day 14 for counting of the number of colonies in each plate. The number of colonies (defined as 50 cells) formed in the 3 compound treated plates is compared to the number of colonies formed in the 3 control plates, and the percent colonies surviving at the concentration of compound can be tabulated. Three positive control plates are used to determine survival rate. Orthosodium vanadate at 200 μg/ml is used as the positive control. If there is <30% cells in the positive control when compared to the untreated control, the test is evaluated. […]

ovarian cancer = assay: In Vitro Human Tumor Colony Forming Units Test, ovarian; assay type: cell-based; conditions: 50.0 μg/ml, continuous exposure
Procedure: as §1, §2

influenza = assay: in vitro model for influenza
chronic hepatitis C = conditions: interferon with or without ribavarin; cited from earlier work

COc1cccc2c1C(=O)c1c(O)c3c(c(O)c1C2=O)C[C@@](O)(C(=O)CO)C[C@@H]3O[C@H]1C[C@H](N)[C@H](O)[C@H](C)O1 [Adriamycin]
Toxic deaths (murine melanoma (B16); fluconazole 0, adriamycin 2 mg/kg): 0 | Toxic deaths (murine melanoma (B16); fluconazole 0, adriamycin 3 mg/kg): 0 | Toxic deaths (murine melanoma (B16); fluconazole 0, adriamycin 4 mg/kg): 0 | % Increase in survival time relative to control (100%) (murine melanoma (B16)): cures occurred | Survivors in cancer model (murine melanoma (B16)): 6/10 and 8/10 and 10/10

NC12CC3CC(CC(C3)C1)C2 [Amantadine]
Percent Mortality ([1]; 75 mg/kg oral): 0%

OC(Cn1cncn1)(Cn1cncn1)c1ccc(F)cc1F [Fluconazole, 2-(2,4-difluorophenyl)-1,3-bis(1H-1,2,4-triazol-1-yl)propan-2-ol]
effectiveness against lung, non-small cell cancer [2]: effective | activity in screening test (Rhinovirus): Nor was it active | Toxic deaths (murine melanoma (B16); fluconazole 175 mg/kg, adriamycin 0): 0 | Toxic deaths (murine melanoma (B16); fluconazole 350 mg/kg, adriamycin 0): 0 | Toxic deaths (murine melanoma (B16); fluconazole 700 mg/kg, adriamycin 0): 0 | % Increase in survival time relative to control (100%) (murine melanoma (B16)): 120% and 116% and 117% | Survivors in cancer model (murine melanoma (B16)): 0 | Percent Mortality ([1]; 350 mg/kg oral): 0% | Percent Mortality ([1]; 700 mg/kg oral): 30% | effective against tumors (number of tumors) ([3]; 0.5 μg/ml): 0/3 | effective against tumors (number of tumors) ([3]; 5.0 μg/ml): 0/13 | tumors with <50% survival (over all) ([3]; 50.0 μg/ml, continuous exposure): 4/13 | effectiveness against ovarian cancer (ovarian cancer): effective | activity in an in vitro model for influenza (influenza): did not show activity

interferon
response rate (chronic hepatitis C): about 25%
